Measurements taken from patent US5298511A, “Alkanoic acid derivatives” (Imperial Chemical Industries PLC, priority 1991, dated 1994).

Target: T1, 5-LO (Homo sapiens, UniProt P09917)
T1 construct: incubating a test compound with heparinised human blood, prior to challenge with the calcium ionophore A23187; endogenous in cells; host or cells: blood cells in heparinised human whole blood, challenged with A23187
T1 sequence (P09917 1-674): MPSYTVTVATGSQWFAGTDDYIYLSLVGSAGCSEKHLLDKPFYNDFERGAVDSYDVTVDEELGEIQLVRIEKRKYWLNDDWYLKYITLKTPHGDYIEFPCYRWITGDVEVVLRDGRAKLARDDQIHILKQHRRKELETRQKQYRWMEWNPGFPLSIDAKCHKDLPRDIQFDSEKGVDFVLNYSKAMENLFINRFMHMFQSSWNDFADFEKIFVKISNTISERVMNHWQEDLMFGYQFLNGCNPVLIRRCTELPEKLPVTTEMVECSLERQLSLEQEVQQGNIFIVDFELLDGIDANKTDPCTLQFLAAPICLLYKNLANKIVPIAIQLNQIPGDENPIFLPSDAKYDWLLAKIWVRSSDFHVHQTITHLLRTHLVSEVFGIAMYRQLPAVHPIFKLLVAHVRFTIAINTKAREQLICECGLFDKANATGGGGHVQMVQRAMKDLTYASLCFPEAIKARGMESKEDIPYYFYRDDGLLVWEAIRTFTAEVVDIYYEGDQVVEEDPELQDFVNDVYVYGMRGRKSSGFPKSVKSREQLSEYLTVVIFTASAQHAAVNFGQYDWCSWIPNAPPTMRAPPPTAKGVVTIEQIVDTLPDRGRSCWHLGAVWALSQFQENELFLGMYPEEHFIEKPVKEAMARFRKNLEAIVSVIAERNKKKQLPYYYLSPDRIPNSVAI
Test: test a) in vitro heparinised human blood challenged with calcium ionophore A23187; LTB4 by radioimmunoassay
Format: cell-based
Method: a) An in vitro assay system involving incubating a test compound with heparinised human blood, prior to challenge with the calcium ionophore A23187 and then indirectly measuring the inhibitory effects on 5-LO by assaying the amount of LTB4 using specific radioimmunoassays described by Carey and Forder (F. Carey and R. A. Forder, Prostaglandins, Leukotrienes Med., 1986, 22, 57; Prostaglandins, 1984, 28, 666; Brit. J. Pharmacol. 1985, 84, 34 P) which involve the use of a protein-LTB4 conjugate produced using the procedure of Young et alia (Prostaglandins, 1983, 26(4), 605-613). The effects of a test compound on the enzyme cyclooxygenase (which is involved in the alternative metabolic pathway for arachidonic acid and gives rise to prostaglandins, thromboxanes and related metabolites) may be measured at the same time using the specific radioimmunoassay for thromboxane B2 (TxB2) described by Carey and Forder (see above). This test provides an indication of the effects of a test compound against 5-LO and also cyclooxygenase in the presence of blood cells and proteins. It permits the selectivity of the inhibitory effect on 5-LO or cyclooxygenase to be assessed.

Work on CCOC(=O)C(CC)(CC)c1cccc(OCc2ccc3ccccc3c2)c1 [Example 1, ethyl 2-ethyl-2-[3-(naphth-2-ylmethoxy)phenyl]butyrate] yielded an IC50 of 200 nM.
